The values that follow come from article PMC7838297, “Acyl-CoA thioesterase activity of peroxisomal ABC protein ABCD1 is required for the transport of very long-chain acyl-CoA into peroxisomes” (Scientific Reports, 2021).

Each structure is given as a SMILES string.

What all share (type): biochemical
Test [1] concerns the target T1, His-ABCD1 (human ABCD1) (Homo sapiens, UniProt P33897).
T1 construct: full-length, His-tagged (tag kept), expressed in Komagataella phaffii pxa1-delta, beta-DDM-solubilised, metal-chelate purified, reconstituted into soybean PC liposomes; about 80 kDa band
The test is described as follows: ATPase, phosphate release. Conditions: 5 mM ATP, 11 mM MgCl2, pH 7.6, 37 °C; ABCD1-liposomes.

The target in a further test is T2, His-KpFAA2 (Komagataella phaffii, UniProt F2QZH2).
T2 construct: gene FAA2; His-tagged, expressed in K. phaffii SMD1168, metal-chelate purified as for His-ABCD1
T2 sequence (F2QZH2 1-741): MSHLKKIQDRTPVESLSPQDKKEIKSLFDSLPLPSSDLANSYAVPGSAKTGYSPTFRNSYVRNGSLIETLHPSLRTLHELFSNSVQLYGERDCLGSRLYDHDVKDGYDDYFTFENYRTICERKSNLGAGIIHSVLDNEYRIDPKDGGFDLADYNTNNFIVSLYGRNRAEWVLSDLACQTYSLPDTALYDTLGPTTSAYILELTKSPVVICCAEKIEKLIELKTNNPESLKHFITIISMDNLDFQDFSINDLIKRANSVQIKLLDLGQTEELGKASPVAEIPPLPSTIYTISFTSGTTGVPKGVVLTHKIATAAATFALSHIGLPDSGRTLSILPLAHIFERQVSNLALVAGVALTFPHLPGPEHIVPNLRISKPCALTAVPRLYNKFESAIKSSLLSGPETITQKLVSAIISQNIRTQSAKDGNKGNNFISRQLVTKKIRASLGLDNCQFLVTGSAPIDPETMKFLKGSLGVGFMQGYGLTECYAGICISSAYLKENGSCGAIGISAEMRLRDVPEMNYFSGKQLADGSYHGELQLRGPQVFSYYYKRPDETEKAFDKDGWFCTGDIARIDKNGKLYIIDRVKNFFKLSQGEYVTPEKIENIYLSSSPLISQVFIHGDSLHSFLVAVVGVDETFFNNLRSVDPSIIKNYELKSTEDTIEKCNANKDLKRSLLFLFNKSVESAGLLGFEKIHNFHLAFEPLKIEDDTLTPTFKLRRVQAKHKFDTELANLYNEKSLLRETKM
The test is described as follows: acyl-CoA synthesis, TLC. Conditions: 5 mM CoA, 5 mM ATP, 5 mM MgCl2, pH 7.5, 30 °C, 3 h.

Test [2] has as its target T3, His-ABCD1 (human ABCD1) (Homo sapiens, UniProt P33897, K513A).
T3 construct: full-length, His-tagged (tag kept), expressed in Komagataella phaffii pxa1-delta, beta-DDM-solubilised, metal-chelate purified, reconstituted into soybean PC liposomes; about 80 kDa band
T3 sequence (P33897 1-745 K513A): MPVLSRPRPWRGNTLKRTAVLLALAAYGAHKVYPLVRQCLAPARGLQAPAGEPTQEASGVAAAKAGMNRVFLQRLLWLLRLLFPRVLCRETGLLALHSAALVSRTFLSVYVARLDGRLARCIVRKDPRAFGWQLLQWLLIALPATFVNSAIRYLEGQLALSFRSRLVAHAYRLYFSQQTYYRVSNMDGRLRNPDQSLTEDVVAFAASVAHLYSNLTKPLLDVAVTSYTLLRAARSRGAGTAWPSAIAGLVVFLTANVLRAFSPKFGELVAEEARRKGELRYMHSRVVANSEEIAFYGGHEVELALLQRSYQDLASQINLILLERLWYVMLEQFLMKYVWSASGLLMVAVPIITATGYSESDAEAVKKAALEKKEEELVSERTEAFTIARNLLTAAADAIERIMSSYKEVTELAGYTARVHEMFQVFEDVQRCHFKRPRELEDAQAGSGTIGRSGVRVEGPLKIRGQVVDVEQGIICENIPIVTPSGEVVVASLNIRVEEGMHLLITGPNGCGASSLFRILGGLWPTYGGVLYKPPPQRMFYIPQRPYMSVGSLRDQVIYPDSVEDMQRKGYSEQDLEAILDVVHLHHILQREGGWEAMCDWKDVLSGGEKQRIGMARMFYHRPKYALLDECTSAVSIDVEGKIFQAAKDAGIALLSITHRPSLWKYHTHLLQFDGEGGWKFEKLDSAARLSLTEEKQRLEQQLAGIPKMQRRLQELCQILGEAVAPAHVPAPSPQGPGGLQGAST
The test is described as follows: thioesterase assay by TLC; in-gel fluorescence of acylated protein. Particulars: 1 mM MgCl2, 37 °C, 30 min; mutant liposomes; covalent acyl intermediate.

Test [3] deals with T1, His-ABCD1 (human ABCD1). The description is as above. Particulars: 1 mM MgCl2, 37 °C; ABCD1-liposomes; covalent acyl (thioester) intermediate.
Test [4] deals with T1, His-ABCD1 (human ABCD1). In words: liposome transport assay of NBD-C16, dithionite quench, TLC. Particulars: read-out: residual NBD-C16 transport at 20 μM.

Take `Nc1ncnc2c1ncn2[C@@H]1O[C@H](COP(=O)(O)OP(=O)(O)OP(=O)(O)O)[C@@H](O)[C@H]1O` [ATP]: the “ATPase, phosphate release” value on His-ABCD1 (human ABCD1) [1] is on record as “ABCD1-liposomes possess ATPase activity”.

With `O=C(O)CCCCCNc1ccc([N+](=O)[O-])c2nonc12` [NBD-C6], the “acyl-CoA synthesis, TLC” value on His-KpFAA2 is “NBD-C6) was incubated with purified His-KpFAA2 to generate NBD-hexanoyl-CoA”.

For the compound `CC(C)(COP(=O)(O)OP(=O)(O)OC[C@H]1O[C@@H](n2cnc3c(N)ncnc32)[C@H](O)[C@@H]1OP(=O)(O)O)[C@@H](O)C(=O)NCCC(=O)NCCSC(=O)CCCCCCCCCCCCCCCNc1ccc([N+](=O)[O-])c2nonc12` [NBD-C16-CoA], the “thioesterase assay by TLC; in-gel fluorescence of acylated protein” value at His-ABCD1 (human ABCD1) [2] is “these mutants possess ACOT activity comparable to the wild type and exhibited covalent linkage”; on His-ABCD1 (human ABCD1) [3], “demonstrating that ABCD1 is covalently labeled by NBD-C16”.

`CCCCCCCCCCCCCCCC(=O)SCCNC(=O)CCNC(=O)[C@H](O)C(C)(C)COP(=O)(O)OP(=O)(O)OC[C@H]1O[C@@H](n2cnc3c(N)ncnc32)[C@H](O)[C@@H]1OP(=O)(O)O` [palmitoyl-CoA]: the remaining activity at 20 µM on His-ABCD1 (human ABCD1) [4] came out at 3.95 ± 0.7%.
